This is an account of results in ChEMBL document CHEMBL1201862, “PubChem BioAssay data set” (2004).

Some test systems named below: 786-0; HL-60; LOX IMVI; NCI-H460; NCI-H522; OVCAR-3; OVCAR-4; RPMI-8226; SF-268; SK-MEL-5; SNB-19; SW-620; CAKI-1; HCC 2998; HOP-92; SK-OV-3; UACC-257.
What all share (experiment): growth of human tumour cells (NCI), 48 h

Each structure is given as a SMILES string.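 1) Cells in 96-well plates. 2) Compound, 48 h, 5 concentrations. 3) Linear interpolation between surrounding doses. 4) Unreached endpoint = highest concentration. At the GI50, growth is halved.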 The source made the active and inactive calls. Cut-off read from the data, not from the text of the source: active = GI50 up to about 1.1 µM and inactive = higher. Bounds are passed on as bounds.

For the molecule `C=CCNC(=S)N1CC(C)C(=O)Nc2ccccc21` (centres undefined), the GI50 in the experiment with 786-0, in the experiment with HL-60, in the experiment with LOX IMVI, in the experiment with NCI-H460, in the experiment with NCI-H522 and in the experiment on OVCAR-3 was > 100 µM (inactive) in each case. For the same molecule, the GI50 in the experiment on OVCAR-4, in the experiment on RPMI-8226, in the experiment with SF-268, with SK-MEL-5, with SNB-19 and with SW-620 was > 100 µM (inactive) each time.
Regarding `Cc1c(Cl)cccc1NC(=O)/C(Cl)=C(\Cl)C(=O)O`, the GI50 was 18.4 µM (inactive) in the experiment on 786-0; 17.3 µM (inactive) in the experiment on CAKI-1; 20.3 µM (inactive) with HCC 2998; 17.4 µM (inactive) in the experiment on HOP-92; 18.7 µM (inactive) with LOX IMVI; > 100 µM (inactive) with NCI-H460. The GI50 in the experiment with NCI-H522 is 2.1 µM (inactive); with OVCAR-3 it was 19 µM (inactive); in the experiment on OVCAR-4, 16.9 µM (inactive); with RPMI-8226, 11.8 µM (inactive); in the experiment with SF-268 it was 22.6 µM (inactive); in the experiment with SK-MEL-5 it was 20.5 µM (inactive). The GI50 was 18.9 µM (inactive) in the experiment with SK-OV-3, 44.8 µM (inactive) in the experiment on SNB-19, 19.4 µM (inactive) with SW-620 and 19.3 µM (inactive) with UACC-257.
In the case of `COCCCNC(=O)CC(=O)NCCCOC`, the GI50 in the experiment with 786-0, in the experiment with HCC 2998, with HL-60, with HOP-92, in the experiment with NCI-H460 and with NCI-H522 was > 100 µM (inactive) in each case. Further, the GI50 with OVCAR-3, in the experiment with OVCAR-4, with RPMI-8226, with SF-268, with SK-MEL-5 and in the experiment with SNB-19 was > 100 µM (inactive) throughout. Also, the GI50 with SW-620 and in the experiment with UACC-257 was > 100 µM (inactive) in each case.
In the case of `CCN(CC)c1cccc2c1C1(O)CCC3(CC21)OCCCCO3` (centres undefined), the GI50 in the experiment on 786-0 was 74 µM (inactive); in the experiment on CAKI-1, > 100 µM (inactive); in the experiment on HCC 2998, > 100 µM (inactive); in the experiment with HL-60, > 100 µM (inactive); with LOX IMVI, 50.8 µM (inactive); in the experiment with NCI-H460, 53.2 µM (inactive). For the same molecule, the GI50 is > 100 µM (inactive) in the experiment on NCI-H522; 84.9 µM (inactive) in the experiment on OVCAR-3; > 100 µM (inactive) with OVCAR-4; 77.6 µM (inactive) in the experiment with RPMI-8226; > 100 µM (inactive) in the experiment on SF-268; 55.6 µM (inactive) with SK-MEL-5. The GI50 in the experiment on SK-OV-3 was 71.9 µM (inactive); with SNB-19, 18 µM (inactive); in the experiment on SW-620 it was 69.3 µM (inactive); in the experiment on UACC-257 it was > 100 µM (inactive).
With `CN(C)c1n/c(=N/c2ccc3ccccc3c2)ss1`, the GI50 with 786-0 is 37.6 µM (inactive); with CAKI-1, 5.87 µM (inactive); with HCC 2998, 33.7 µM (inactive); with HL-60, 16.1 µM (inactive); in the experiment on NCI-H460, 5.75 µM (inactive); in the experiment with NCI-H522 it was 7.41 µM (inactive). Besides, the GI50 was 12.2 µM (inactive) with OVCAR-3; 17.5 µM (inactive) with OVCAR-4; 6.9 µM (inactive) in the experiment on RPMI-8226; 33.7 µM (inactive) in the experiment with SF-268; 11.1 µM (inactive) in the experiment with SK-MEL-5; 77.1 µM (inactive) in the experiment on SK-OV-3. In addition, the GI50 in the experiment on SNB-19 was 32 µM (inactive); in the experiment with SW-620, 45.3 µM (inactive); with UACC-257, 16.5 µM (inactive).
Take `CCNC(=O)O/N=C1\CCC2[C@@H]3CC=C4C[C@@H](OC5CCCCO5)CC[C@]4(C)C3CC[C@]12C` (some centres undefined): the GI50 is 2.31 µM (inactive) in the experiment on 786-0; 2.5 µM (inactive) with CAKI-1; 2.89 µM (inactive) in the experiment with HCC 2998; 2.48 µM (inactive) in the experiment with HOP-92; 1.58 µM (inactive) in the experiment with LOX IMVI; 1.93 µM (inactive) in the experiment on NCI-H460. For the same molecule, the GI50 was 1.51 µM (inactive) with NCI-H522; 2.59 µM (inactive) in the experiment on OVCAR-3; 1.47 µM (inactive) in the experiment with OVCAR-4; 1.58 µM (inactive) with RPMI-8226; 2.28 µM (inactive) in the experiment with SK-MEL-5; 5.31 µM (inactive) in the experiment on SK-OV-3. The figures for the GI50 in the experiment on SNB-19, in the experiment on SW-620 and in the experiment on UACC-257 were 0.723 µM (active), 2.45 µM (inactive) and 1.61 µM (inactive), respectively.
Turning to `CCOC(=O)C(C(=O)Cc1ccccc1)c1ccccc1` (centres undefined), the GI50 in the experiment with 786-0 is > 100 µM (inactive); in the experiment with CAKI-1, > 100 µM (inactive); in the experiment on HL-60, > 100 µM (inactive); in the experiment on HOP-92, 57 µM (inactive); in the experiment on LOX IMVI it was > 100 µM (inactive); in the experiment with NCI-H460 it was > 100 µM (inactive). The GI50 in the experiment with NCI-H522, in the experiment on OVCAR-3, with OVCAR-4, with RPMI-8226, in the experiment with SF-268 and in the experiment with SK-MEL-5 was > 100 µM (inactive) each time. For the same molecule, the GI50 with SK-OV-3, in the experiment on SNB-19, with SW-620 and in the experiment on UACC-257 was > 100 µM (inactive) in each case.
`COC(=O)C(Cc1ccccc1)NC(=O)Cn1ccnc1[N+](=O)[O-]` (centres undefined): the GI50 in the experiment with 786-0 is > 100 µM (inactive); in the experiment with CAKI-1, > 100 µM (inactive); in the experiment on HL-60, > 100 µM (inactive); in the experiment with HOP-92 it was 63.8 µM (inactive); in the experiment with LOX IMVI, > 100 µM (inactive); in the experiment on NCI-H460, > 100 µM (inactive). For the same molecule, the GI50 with NCI-H522 was > 100 µM (inactive); in the experiment on OVCAR-3, > 10 µM (inactive); with OVCAR-4 it was > 100 µM (inactive); in the experiment on RPMI-8226, > 100 µM (inactive); in the experiment on SF-268, > 100 µM (inactive); in the experiment with SK-MEL-5, 96.6 µM (inactive). For the same molecule, the GI50 in the experiment with SK-OV-3, with SNB-19, with SW-620 and with UACC-257 was > 100 µM (inactive) throughout.
On to `CCCCCC[C@@H]1CCC2C(CO)[C@@H](O)CC[C@@H]2C1` (some centres undefined), for which the GI50 with 786-0 is 19.3 µM (inactive); with CAKI-1 it was > 10 µM (inactive); in the experiment on HCC 2998, 22 µM (inactive); with LOX IMVI it was 19.3 µM (inactive); in the experiment with NCI-H460 it was 15.5 µM (inactive); in the experiment with NCI-H522, 16.3 µM (inactive). Also, the GI50 is 15.8 µM (inactive) in the experiment on OVCAR-3; 16.3 µM (inactive) in the experiment on OVCAR-4; 25.3 µM (inactive) with RPMI-8226; 18.1 µM (inactive) in the experiment with SF-268; 20 µM (inactive) with SK-MEL-5; 18.1 µM (inactive) in the experiment with SNB-19. Besides, the GI50 with SW-620 is 23.1 µM (inactive); with UACC-257 it was 16.7 µM (inactive).
In the case of `N#CC1(C2CC(=O)N(c3ccccc3)C2=O)CCCCC1=O` (centres undefined), the GI50 in the experiment with 786-0 is > 100 µM (inactive); in the experiment with HCC 2998 it was 0.104 µM (active); in the experiment on HL-60, > 100 µM (inactive); in the experiment on LOX IMVI, > 100 µM (inactive); in the experiment on NCI-H460, > 100 µM (inactive); in the experiment with OVCAR-3, > 100 µM (inactive). The GI50 in the experiment with OVCAR-4, with RPMI-8226, in the experiment on SF-268, in the experiment with SK-MEL-5, in the experiment with SK-OV-3 and in the experiment on SNB-19 was > 100 µM (inactive) each time. Moreover, the GI50 with SW-620 was > 100 µM (inactive).
On to `O=C(CSc1nnc(Cc2ccccc2)o1)Nc1ccc(Cl)cc1Cl`, for which the GI50 with 786-0, in the experiment with CAKI-1, in the experiment with HCC 2998, in the experiment with HL-60, in the experiment on LOX IMVI and in the experiment on NCI-H460 was > 100 µM (inactive) in each case. In addition, the GI50 in the experiment on NCI-H522, in the experiment on OVCAR-3, in the experiment with OVCAR-4, in the experiment on RPMI-8226, with SF-268 and in the experiment with SK-MEL-5 was > 100 µM (inactive) in each case. For the same molecule, the GI50 with SK-OV-3, in the experiment with SNB-19, in the experiment on SW-620 and in the experiment on UACC-257 was > 100 µM (inactive) in each case.
With `O=C(CC1(O)C(=O)Nc2ccccc21)c1ccccc1Cl` (centres undefined), the GI50 in the experiment on 786-0, with CAKI-1, with HL-60, with HOP-92, with LOX IMVI and in the experiment with NCI-H460 was > 100 µM (inactive) in each case. In addition, the GI50 in the experiment on NCI-H522 is 76.6 µM (inactive); in the experiment on OVCAR-3 it was > 100 µM (inactive); with OVCAR-4, > 100 µM (inactive); with RPMI-8226, > 100 µM (inactive); with SF-268, > 100 µM (inactive); in the experiment on SK-MEL-5, > 100 µM (inactive). The GI50 with SK-OV-3, with SNB-19, in the experiment on SW-620 and in the experiment on UACC-257 was > 100 µM (inactive) throughout.
Regarding `Cc1ccc(C2=Nc3ccccc3[S+]([O-])C(c3ccc4c(c3)OCO4)C2)cc1` (centres undefined), the GI50 with 786-0 was 19.9 µM (inactive); in the experiment with CAKI-1, 24.5 µM (inactive); in the experiment with HCC 2998 it was > 10 µM (inactive); in the experiment with HL-60, 19.1 µM (inactive); in the experiment with LOX IMVI, 15.9 µM (inactive); with NCI-H460 it was > 10 µM (inactive). Also, the GI50 with NCI-H522 is 18.3 µM (inactive); in the experiment with OVCAR-3 it was 27.7 µM (inactive); in the experiment on OVCAR-4, 29.3 µM (inactive); with SF-268 it was 19.5 µM (inactive); in the experiment on SK-MEL-5, 15 µM (inactive); in the experiment with SK-OV-3, 42.6 µM (inactive). Further, the GI50 with SNB-19 is 58.7 µM (inactive); in the experiment with SW-620 it was 18.5 µM (inactive); in the experiment with UACC-257 it was 29.7 µM (inactive).
